Experimental data: patent US20220204539A1, “CD73 INHIBITORS” (BioArdis LLC, priority 2019, published 2022)

How the values were obtained:
[1] = biological target: T1, Recombinant Human 5′-Nucleotidase (CD73) (Homo sapiens, UniProt P21589); assay: CD73 Enzyme Assay; assay type: biochemical; settings: human CD73 0.5 nM, AMP 30 μM, PiColorLock phosphate detection; read-out: Potency (IC50, CD73 enzyme assay)
T1 construct: CHO derived CD73 (Trp27-Lys547), with a C-terminal 6-His tag; 6-His (C); purchased R&D 5795-EN; host or cells: CHO
T1 sequence (P21589 27-547): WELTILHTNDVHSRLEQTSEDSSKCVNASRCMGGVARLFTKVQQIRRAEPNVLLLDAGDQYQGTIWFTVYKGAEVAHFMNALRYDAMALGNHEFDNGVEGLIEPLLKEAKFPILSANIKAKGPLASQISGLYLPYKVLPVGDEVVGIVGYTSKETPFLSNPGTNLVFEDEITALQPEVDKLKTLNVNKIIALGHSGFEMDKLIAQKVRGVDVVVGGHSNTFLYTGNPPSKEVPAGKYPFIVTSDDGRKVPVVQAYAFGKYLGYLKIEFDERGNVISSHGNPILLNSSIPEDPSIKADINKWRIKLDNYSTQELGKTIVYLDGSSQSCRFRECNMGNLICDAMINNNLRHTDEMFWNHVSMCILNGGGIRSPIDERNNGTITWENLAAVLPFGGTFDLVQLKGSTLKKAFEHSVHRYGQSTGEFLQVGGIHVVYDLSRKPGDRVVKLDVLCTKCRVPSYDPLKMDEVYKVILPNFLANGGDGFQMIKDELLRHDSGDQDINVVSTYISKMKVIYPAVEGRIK
Method in brief: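 Human CD73 (CHO-derived Trp27-Lys547, His-tagged; 0.5 nM final) was preincubated with compound for 15 min at 25° C. in Tris pH 7.5 buffer with MgCl2. It then reacted with 30 μM AMP for 20 min at 37° C., and released phosphate was read by malachite green absorbance at 635 nm. IC50 came from four-parameter fits against enzyme and no-enzyme controls.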

[2] = biological target: T2, Cell surface CD73 of U87 MG human glioblastoma cells (Homo sapiens, UniProt P21589); assay: CD73 Cellular Assay; assay type: cell-based; settings: 5000 cells per well, 30 μM AMP substrate, read-out: Potency (IC50, CD73 cellular assay)
T2 construct: Cell surface CD73 catalyzes the conversion of adenosine monophosphate (AMP) to adenosine and inorganic phosphate; endogenous in cells; host or cells: U87 MG human glioblastoma cells
T2 sequence (P21589 27-549): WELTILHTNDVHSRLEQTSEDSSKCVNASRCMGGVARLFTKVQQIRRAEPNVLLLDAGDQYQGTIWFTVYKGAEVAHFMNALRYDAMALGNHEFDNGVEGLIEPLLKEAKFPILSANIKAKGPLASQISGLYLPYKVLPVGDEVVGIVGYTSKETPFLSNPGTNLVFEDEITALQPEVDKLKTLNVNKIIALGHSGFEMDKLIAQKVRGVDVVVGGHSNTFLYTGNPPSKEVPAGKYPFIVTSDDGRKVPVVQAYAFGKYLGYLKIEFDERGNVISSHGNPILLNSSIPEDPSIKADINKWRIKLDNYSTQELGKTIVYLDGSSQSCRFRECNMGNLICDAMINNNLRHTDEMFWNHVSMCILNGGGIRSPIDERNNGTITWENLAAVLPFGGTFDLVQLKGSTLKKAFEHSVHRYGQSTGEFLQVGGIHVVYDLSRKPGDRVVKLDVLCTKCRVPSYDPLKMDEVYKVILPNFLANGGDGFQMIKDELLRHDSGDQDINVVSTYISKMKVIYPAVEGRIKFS
Method in brief: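 U87 MG cells (5000/well) preincubated with compound 30 min at 37 °C, 5% CO2, in HEPES-buffered saline pH 7.4 with 0.5% DMSO, then 30 μM AMP (final) for 50 min. Released phosphate in supernatant read colorimetrically at 635 nm; IC50 from four-parameter logistic fit versus cells-plus-substrate and cells-only controls.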

[3] = tested on: CT-26 murine colon carcinoma; assay: subcutaneous CT-26 murine colon carcinoma syngeneic model, combination therapy; assay type: in vivo; settings: combination with anti-mPDI antibody 10 mg/kg i.p. twice weekly, 4 doses; compound 10 mg/kg iv once a day from day 6 post implant; CT-26 in BALB/c female mice
Experimental: Some compounds were evaluated preclinically for in vivo therapeutic efficacy as single agents or in combination with other agents. Compounds of the invention show potent anti-tumor effects when dosed in combination with, for example, an anti-mPDI antibody as evidenced by reducing tumor volume in a subcutaneous CT-26 murine colon carcinoma syngeneic model in BALB/c female mice. CT-26 tumor cells were implanted subcutaneously into BALB/c female mice for each experiment. Anti-mPDl antibody (10 mg/kg) was dosed i.p. starting on study day 6 post implant twice weekly for a total of 4 doses. Compound No. 65 (10 mg/kg) or vehicle was administered iv once a day starting on day 6 post implant.

Row | SMILES | IC50 [1] [µM] | IC50 [2] [µM] | tumor volume [3]
1 | O=P(O)(O)CP(=O)(O)OC[C@H]1O[C@@H](c2cnc3c(N4CCC[C@H]4c4ccccc4)nc(Cl)nn23)[C@H](O)[C@@H]1O [Compound 64, (((((2R,3S,4R,1S)-5-(2-chloro-4-((S)-2-phenylpyrrolidin-1-yl)imidazo[2,1-f][1,2,4]triazin-7-yl)-3,4-dihydroxytetrahydrofuran-2-yl)methoxy)(hydroxy)phosphoryl)methyl)phosphonic Acid] | < 0.01 | < 0.001 | –
2 | O=P(O)(O)CP(=O)(O)OC[C@H]1O[C@@H](c2cnc3c(N4CCCC4)nc(Cl)nn23)[C@H](O)[C@@H]1O [Compound 65, [({[(2R,3S,4R,5S)-5-[2-chloro-4-(pyrrolidin-1-yl)imidazo[2,1-f][1,2,4]triazin-7-yl]-3,4-dihydroxyoxolan-2-yl]methoxy}(hydroxy)phosphoryl)methyl]phosphonic Acid] | < 0.01 | < 0.001 | reduction in tumor volume
3 | NC(=O)c1nc(NC2CCCC2)c2ncc([C@@H]3O[C@H](COP(=O)(O)CP(=O)(O)O)[C@@H](O)[C@H]3O)n2n1 [Compound 66, (((((2R,3S,4R,5S)-5-(2-carbamoyl-4-(cyclopentylamino)imidazo[2,1-f][1,2,4]triazin-7-yl)-3,4-dihydroxytetrahydrofuran-2-yl)methoxy)(hydroxy)phosphoryl)methyl)phosphonic Acid] | < 0.01 | < 0.001 | –
4 | O=P(O)(O)CP(=O)(O)OC[C@H]1O[C@@H](c2cnc3c(N4CC5CCCC5C4)nc(Cl)nn23)[C@@H](F)[C@@H]1O (stereo partly drawn) [Compound 72, (((((2R,3R,4S,5S)-5-(2-chloro-4-(hexahydrocyclopenta[c]pyrrol-2(1H)-yl)imidazo[2,1-f][1,2,4]triazin-7-yl)-4-fluoro-3-hydroxytetrahydrofuran-2-yl)methoxy)(hydroxy)phosphoryl)methyl) phosphonic Acid] | < 0.01 | 0.001 to 0.0099 | –
5 | O=P(O)(O)CP(=O)(O)OC[C@H]1OC(c2cnc3c(N4CCCC4)nc(Cl)nn23)[C@@H](F)[C@@H]1O (stereo partly drawn) [Compound 73, (((((2R,3R,4S)-5-(2-chloro-4-(pyrrolidin-1-yl)imidazo[2,1-f][1,2,4]triazin-7-yl)-4-fluoro-3-hydroxytetrahydrofuran-2-yl)methoxy)(hydroxy)phosphoryl)methyl)phosphonic Acid] | 0.01 to 0.099 | 0.001 to 0.0099 | –
6 | C[C@H](Nc1nc(Cl)nn2c(C3O[C@H](COP(=O)(O)CP(=O)(O)O)[C@@H](O)[C@@H]3F)cnc12)c1ccccc1F (stereo partly drawn) [Compound 74, (((((2R,3R,4S)-5-(2-chloro-4-(((S)-1-(2-fluorophenyl)ethyl)amino)imidazo[2,1-f][1,2,4]triazin-7-yl)-4-fluoro-3-hydroxytetrahydrofuran-2-yl)methoxy)(hydroxy)phosphoryl)methyl)phosphonic Acid] | 0.01 to 0.099 | 0.01 to 0.0999 | –
7 | O=P(O)(O)CP(=O)(O)OC[C@H]1O[C@@H](c2cnc3c(N4CCC(F)(F)C4)nc(Cl)nn23)[C@@H](F)[C@@H]1O [Compound 75, (((((2R,3R,4S,5S)-5-(2-chloro-4-(3,3-difluoropyrrolidin-1-yl)imidazo[2,1-f][1,2,4]triazin-7-yl)-4-fluoro-3-hydroxytetrahydrofuran-2-yl)methoxy)(hydroxy)phosphoryl)methyl)phosphonic Acid] | 0.01 to 0.099 | 0.001 to 0.0099 | –
